Measurements published in patent US20050239173A1, “Production of amino sugars” (Cargill, Inc., priority 2003, published 2005).

Tests used:
[1] = molecular target: glucosamine-6-phosphate synthase (Escherichia coli, UniProt P17169); conditions: White, Biochem. J. 106:847-858 (1968); cited from earlier work
[2] = molecular target: T1, E. coli N-acetylglucosamine-6-phosphate deacetylase (Escherichia coli, UniProt P0AF18); experiment: Enzymatic deacetylation of N-acetylglucosamine followed over time (Elson and Morgan assay); format: biochemical; conditions: 37° C.; for [Glucosamine]: 0.1 mL of 500 mM N-acetylglucosamine in 0.2 mL, Tris-HCl pH 7.8, nagA cell extract
T1 construct: The Xa protease recognition site (IEGR) sits directly in front of the start codon of the gene of interest; His-tag (N); S-tag (N); Factor Xa recognition site (IEGR) (N); made in house; host or cells: E. coli BL21(DE3), pET30(Xa/LIC)
Protocol: Fermentation broth and cell extract samples were routinely assayed using the method of Elson and Morgan (Biochem. J. 27:1824-1828) described by Zalkin (1985, Method Enzymol. 113:278-281) and Roden et al. (1997, Anal. Biochem. 254:240-248). Typically, to 0.08 mL of fermentation broth or 0.015 to 0.02 mL of cell extract was added 0.01 mL of saturated sodium bicarbonate solution and 0.01 mL of cold, freshly prepared 5% aqueous acetic anhydride. After a 3 minute incubation at room temperature, the mixture was incubated at 100° C. for 3 min to drive off the excess acetic anhydride. After cooling to room temperature, 0.12 mL of potassium borate, pH 9.2, was added and the mixture was incubated at 100° C. for 3 min. After cooling to room temperature, 1.0 mL of Ehrlich's reagent (1 gram p-dimethylaminobenzaldehyde in 100 mL glacial acetic acid containing 0.125 M HCl) was added to each tube. The tubes were incubated at 37° C. for 20 min and the absorbance at 585 nm was measured. All samples were assayed in duplicate. A standard curve was generated using 0.005 to 0.1 μmole glucosamine for quantification of product formation. Samples were assayed with and without the acetic anhydride addition to determine the amounts of glucosamine and N-acetylglucosamine present in the sample. The amount of N-acetylglucosamine was calculated from the results of assays without the acetic anhydride addition. The amount of glucosamine was calculated as the difference between the results with and without the acetic anhydride addition.
The enzymatic deacetylation of N-acetylglucosamine was followed over time. In a total of 0.2 mL was mixed 0.1 mL of 500 mM N-acetylglucosamine, 0.02 mL of 0.5 M Tris-HCl, pH 7.8 and nagA protein (cell extract fraction; 3.5 mg/mL protein). The mixtures were incubated from 0 to 120 min at 37° C. To distinguish between glucosamine and N-acetylglucosamine using the Elson and Morgan method described in the Materials and Methods section, the product formation in the samples was measured with and without the acetylation step. The amount of glucosamine was calculated as the difference between the assay results with and without the acetylation step. After 120 min approximately 74% of the substrate N-acetylglusosamine was converted to glucosamine.

osteoarthritis = conditions: patients; cited from earlier work
[3] = test system: S. cerevisiae strain BY4742; experiment: Growth of S. cerevisiae strains in the presence of glucosamine (OD600); format: cell-based, Saccharomyces cerevisiae; conditions: parental strains of Examples 1-3 (BY4742 and BY4743); concentrations of glucosamine as high as 20 g/L
[4] = test system: S. cerevisiae strain BY4742; experiment: as above; format: cell-based, Saccharomyces cerevisiae; conditions: BY4742 GFA1pESCHis
Protocol: (§1) S. cerevisiae strains BY4742 and BY4743 transformed with pESCHis carrying the GFA1 insert were grown in 5 mL SC-His medium containing 2% glucose overnight at 30° C. with shaking. An aliquot (0.5 mL) from each culture was transferred to 6 flasks containing 50 mL of SC-His medium containing 2% glucose. Glucosamine at the following concentrations was added to the flasks: 0, 2, 6, 10, 15, 20 mg/mL for each strain. The incubation was continued for 28 h at 30° C. with shaking. At 3, 16 and 28 h samples were withdrawn and the optical density at 600 nm was measured.

[5] = test system: S. cerevisiae strain BY4743; experiment: as above; format: cell-based, Saccharomyces cerevisiae; conditions: BY4743 GFA1pESCHis
Protocol: as §1

glucosamine-6-phosphate synthase, sequence (P17169 whole entry): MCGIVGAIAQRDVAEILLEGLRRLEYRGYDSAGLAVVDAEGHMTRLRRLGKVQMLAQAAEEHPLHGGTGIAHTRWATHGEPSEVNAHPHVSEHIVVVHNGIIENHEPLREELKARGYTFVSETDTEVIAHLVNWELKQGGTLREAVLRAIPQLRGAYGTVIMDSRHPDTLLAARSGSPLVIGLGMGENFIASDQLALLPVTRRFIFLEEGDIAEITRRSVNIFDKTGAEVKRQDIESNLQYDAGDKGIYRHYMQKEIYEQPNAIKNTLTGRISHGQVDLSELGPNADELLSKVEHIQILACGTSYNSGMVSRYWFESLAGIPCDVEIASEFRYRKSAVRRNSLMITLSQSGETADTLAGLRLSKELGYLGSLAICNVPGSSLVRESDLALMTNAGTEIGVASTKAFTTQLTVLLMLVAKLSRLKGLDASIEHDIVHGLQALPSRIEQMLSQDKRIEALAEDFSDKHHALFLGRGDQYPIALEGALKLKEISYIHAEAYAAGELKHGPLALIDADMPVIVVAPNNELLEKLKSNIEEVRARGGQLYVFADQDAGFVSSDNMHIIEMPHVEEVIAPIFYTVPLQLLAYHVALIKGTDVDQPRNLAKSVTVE

## N[C@H]1C(O)O[C@H](COP(=O)(O)O)[C@@H](O)[C@@H]1O (stereo partly shown) [glucosamine-6-phosphate]
[1]
  inhibition of glucosamine-6-phosphate synthase activity: inhibited

## CC(=O)N[C@@H](C=O)[C@@H](O)[C@H](O)[C@H](O)CO [N-acetylglucosamine, 2-acetamino-2-deoxy-D-glucose]
[2]; 0 min
  [Glucosamine]: 0.0 mM
[2]; 15 min
  [Glucosamine]: 126.3 mM
[2]; 30 min
  [Glucosamine]: 136.3 mM
[2]; 60 min
  [Glucosamine]: 161.3 mM
[2]; 120 min
  [Glucosamine]: 185.0 mM
[2]; after 120 min, nagA cell extract
  substrate converted to glucosamine: approximately 74%

## N[C@H]1C(O)O[C@H](CO)[C@@H](O)[C@@H]1O (stereo partly shown) [glucosamine, 2-amino-2-deoxyglucopyranose]
osteoarthritis
  effect on joint structure: improve joint structure
  effect on pain of osteoarthritis: reduce the pain of osteoarthritis in some patients
[3]
  effect of glucosamine on the parental strains: not affected
[4]; glucosamine 2.0 mg/mL, 3 h
  OD600: 0.71
[4]; glucosamine 2.0 mg/mL, 16 h
  OD600: 3.06
[4]; glucosamine 2.0 mg/mL, 28 h
  OD600: 3.32
[4]; glucosamine 6.0 mg/mL, 3 h
  OD600: 0.66
[4]; glucosamine 6.0 mg/mL, 16 h
  OD600: 2.98
[4]; glucosamine 6.0 mg/mL, 28 h
  OD600: 3.27
[4]; glucosamine 10.0 mg/mL, 3 h
  OD600: 0.64
[4]; glucosamine 10.0 mg/mL, 16 h
  OD600: 2.87
[4]; glucosamine 10.0 mg/mL, 28 h
  OD600: 3.06
[4]; glucosamine 15.0 mg/mL, 3 h
  OD600: 0.60
[4]; glucosamine 15.0 mg/mL, 16 h
  OD600: 2.92
[4]; glucosamine 15.0 mg/mL, 28 h
  OD600: 3.22
[4]; glucosamine 20.0 mg/mL, 3 h
  OD600: 0.57
[4]; glucosamine 20.0 mg/mL, 16 h
  OD600: 2.84
[4]; glucosamine 20.0 mg/mL, 28 h
  OD600: 3.02
[5]; glucosamine 2.0 mg/mL, 3 h
  OD600: 0.74
[5]; glucosamine 2.0 mg/mL, 16 h
  OD600: 4.12
[5]; glucosamine 2.0 mg/mL, 28 h
  OD600: 4.69
[5]; glucosamine 6.0 mg/mL, 3 h
  OD600: 0.76
[5]; glucosamine 6.0 mg/mL, 16 h
  OD600: 3.99
[5]; glucosamine 6.0 mg/mL, 28 h
  OD600: 5.02
[5]; glucosamine 10.0 mg/mL, 3 h
  OD600: 0.66
[5]; glucosamine 10.0 mg/mL, 16 h
  OD600: 4.18
[5]; glucosamine 10.0 mg/mL, 28 h
  OD600: 4.36
[5]; glucosamine 15.0 mg/mL, 3 h
  OD600: 0.68
[5]; glucosamine 15.0 mg/mL, 16 h
  OD600: 4.00
[5]; glucosamine 15.0 mg/mL, 28 h
  OD600: 4.14
[5]; glucosamine 20.0 mg/mL, 3 h
  OD600: 0.38
[5]; glucosamine 20.0 mg/mL, 16 h
  OD600: 3.78
[5]; glucosamine 20.0 mg/mL, 28 h
  OD600: 3.98
